Series [1] concerns the target T1, NMDAR2A expressing HEK cell membranes (Homo sapiens, UniProt Q05586+Q12879).
T1 construct: expressed in transfected cells; host or cells: HEK cells (membrane extract)
As to the kind of experiment: NMDAR agonist assay, [3H]MK-801 binding, NMDAR2A. More on the design: key to NMDAR2A B: log EC50: 0=−; ≥1×10^−9 M (e.g., −8)=+; <1×10^−9 M (e.g., −10)=++. The format is biochemical. Conditions: 50 μM glutamate; for EC50: read-out: NMDAR2A B: log EC50 (converted); for Emax: 0.25 h, read-out: NMDAR2A A: % maximal [3H]MK-801 binding relative to 1 mM glycine. How it is done: (§1) Assays were conducted as described by Moskal et al., “GLYX-13: a monoclonal antibody-derived peptide that acts as an N-methyl-D-aspartate receptor modulator,” Neuropharmacology, 49, 1077-87, 2005. These studies were designed to determine if the test compounds act to facilitate NMDAR activation in NMDAR2A, NMDAR2B, NMDAR2C or NMDAR2D expressing HEK cell membranes as measured by increases in [^3H]MK-801 binding.
(§2) In the assay, 300 μg of NMDAR expressing HEK cell membrane extract protein was preincubated for 15 minutes at 25° C. in the presence of saturating concentrations of glutamate (50 μM) and varying concentrations of test compound (1×10^−15 M-1×10^−7 M), or 1 mM glycine. Following the addition of 0.3 μCi of [^3H]MK-801 (22.5 Ci/mmol), reactions were again incubated for 15 minutes at 25° C. (nonequilibrium conditions). Bound and free [^3H]MK-801 were separated via rapid filtration using a Brandel apparatus.
(§3) In analyzing the data, the DPM (disintegrations per minute) of [^3H]MK-801 remaining on the filter were measured for each concentration of test compound or for 1 mM glycine. The DPM values for each concentration of a ligand (N=2) were averaged. The baseline value was determined from the best fit curve of the DPM values modeled using the GraphPad program and the log(agonist) vs. response(three parameters) algorithm was then subtracted from all points in the dataset. The % maximal [^3H]MK-801 binding was then calculated relative to that of 1 mM glycine: all baseline subtracted DPM values were divided by the average value for 1 mM glycine. The EC50 and % maximal activity were then obtained from the best fit curve of the % maximal [^3H]MK-801 binding data modelled using the GraphPad program and the log(agonist) vs. response(three parameters) algorithm.
(§4) The tables below summarize the results for the wild type NMDAR agonists NMDAR2A, NMDAR2B, NMDAR2C, and NMDAR2D, and whether the compound is not an agonist (−), is an agonist (+), or is a strong agonist (++), where column A is based on the % maximal [^3H]MK-801 binding relative to 1 mM glycine (−=0; <100%=+; and >100%=++); and column B is based on log EC50 values (0=−; ≥1×10^−9 M (e.g., −8)=+; and <1×10^−9 M (e.g., −10)=++).

Series [2] concerns the target T2, NMDAR2B expressing HEK cell membranes (Homo sapiens, UniProt Q05586+Q13224).
T2 construct: expressed in transfected cells; host or cells: HEK cells (membrane extract)
Nature of the series: NMDAR agonist assay, [3H]MK-801 binding, NMDAR2B. The arrangement: key to NMDAR2B B: log EC50: 0=−; ≥1×10^−9 M (e.g., −8)=+; <1×10^−9 M (e.g., −10)=++. Conditions: 50 μM glutamate; for EC50: read-out: NMDAR2B B: log EC50 (converted); for Emax: 0.25 h, read-out: NMDAR2B A: % maximal [3H]MK-801 binding relative to 1 mM glycine. Format: biochemical. Here is the method:
as §1, §2, §3, §4

Another series in a line: IV pharmacokinetics. To be noted: Sprague Dawley, in vivo, rat, 2 mg/kg, normal saline; for Vd: read-out: Vss. More on the design: species or system Sprague Dawley rats. Here is the method: Sprague Dawley rats were dosed intravenously using a normal saline formulation containing 2 mg/kg of the compounds identified in the below table. The table below summarizes the results of the IV pharmacokinetics.

Series [3] can be described thus: Oral pharmacokinetics (plasma, brain, CSF). The format is in vivo, Sprague Dawley rats. Conditions: rat, per os, 10 mg/kg; for AUC(0-t) / bioavailability / Tmax / Cmax: Sprague Dawley, plasma, po; for Tmax: normal saline. How it is done: In another experiment, Sprague Dawley rats were dosed per os using a normal saline formulation containing 10 mg/kg of the compounds identified in the table below. Plasma, brain, and CSF samples were analyzed at various time points over a 24 hour period. The table below summarizes the results of the oral pharmacokinetics.

In series [4] the target is T3, NMDAR2A expressing HEK cell membranes (Homo sapiens, UniProt Q12879).
T3 construct: expressed in transfected cells; host or cells: HEK cells (membrane extract)
T3 sequence (Q12879 23-1464, other chains not shown): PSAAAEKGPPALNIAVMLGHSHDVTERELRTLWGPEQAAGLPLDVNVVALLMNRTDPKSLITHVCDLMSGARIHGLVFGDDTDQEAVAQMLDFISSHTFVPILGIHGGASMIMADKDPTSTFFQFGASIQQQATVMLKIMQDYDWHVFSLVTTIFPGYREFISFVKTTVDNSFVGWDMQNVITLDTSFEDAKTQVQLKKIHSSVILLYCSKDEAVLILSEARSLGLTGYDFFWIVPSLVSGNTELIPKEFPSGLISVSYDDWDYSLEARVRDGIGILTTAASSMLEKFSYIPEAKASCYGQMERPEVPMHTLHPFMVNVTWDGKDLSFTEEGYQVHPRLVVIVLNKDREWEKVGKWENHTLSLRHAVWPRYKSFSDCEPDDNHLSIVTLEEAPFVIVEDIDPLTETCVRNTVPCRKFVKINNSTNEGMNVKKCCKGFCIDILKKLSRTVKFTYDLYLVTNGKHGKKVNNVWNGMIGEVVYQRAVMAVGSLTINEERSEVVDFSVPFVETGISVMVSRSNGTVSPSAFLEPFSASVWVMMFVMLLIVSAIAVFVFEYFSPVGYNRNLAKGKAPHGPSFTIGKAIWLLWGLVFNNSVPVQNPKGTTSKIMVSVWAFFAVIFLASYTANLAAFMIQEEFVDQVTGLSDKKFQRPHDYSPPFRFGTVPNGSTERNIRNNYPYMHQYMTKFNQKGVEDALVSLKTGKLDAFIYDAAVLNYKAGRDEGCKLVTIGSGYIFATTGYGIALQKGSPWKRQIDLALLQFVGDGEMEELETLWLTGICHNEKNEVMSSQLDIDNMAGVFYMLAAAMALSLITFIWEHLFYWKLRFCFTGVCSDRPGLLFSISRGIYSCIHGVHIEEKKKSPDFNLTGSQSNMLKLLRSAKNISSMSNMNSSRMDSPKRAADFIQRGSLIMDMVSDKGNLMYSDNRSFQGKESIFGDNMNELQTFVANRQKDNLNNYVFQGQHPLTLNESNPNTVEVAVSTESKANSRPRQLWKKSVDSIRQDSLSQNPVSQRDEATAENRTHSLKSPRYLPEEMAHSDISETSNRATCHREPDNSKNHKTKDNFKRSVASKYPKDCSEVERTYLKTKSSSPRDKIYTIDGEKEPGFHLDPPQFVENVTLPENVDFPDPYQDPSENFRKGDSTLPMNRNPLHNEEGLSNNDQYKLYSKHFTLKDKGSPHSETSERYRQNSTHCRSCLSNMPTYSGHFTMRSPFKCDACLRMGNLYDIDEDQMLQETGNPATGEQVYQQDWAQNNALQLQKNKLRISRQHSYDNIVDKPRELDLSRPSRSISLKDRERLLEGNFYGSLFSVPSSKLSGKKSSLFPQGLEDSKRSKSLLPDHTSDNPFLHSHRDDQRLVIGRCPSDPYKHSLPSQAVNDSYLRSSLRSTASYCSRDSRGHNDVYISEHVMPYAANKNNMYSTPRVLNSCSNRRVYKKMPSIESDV
Nature of the series: NMDAR agonist assay, [3H]MK-801 binding, NMDAR2A. The format is biochemical. More on the design: key to NMDAR2A B: log EC50: 0=−; ≥1×10^−9 M (e.g., −8)=+; <1×10^−9 M (e.g., −10)=++. To be noted: 50 μM glutamate. Here is the method:
as §1, §2, §3, §4

The target of series [5] is T4, NMDAR2B expressing HEK cell membranes (Homo sapiens, UniProt Q13224).
T4 construct: expressed in transfected cells; host or cells: HEK cells (membrane extract)
T4 sequence (Q13224 27-1484, other chains not shown): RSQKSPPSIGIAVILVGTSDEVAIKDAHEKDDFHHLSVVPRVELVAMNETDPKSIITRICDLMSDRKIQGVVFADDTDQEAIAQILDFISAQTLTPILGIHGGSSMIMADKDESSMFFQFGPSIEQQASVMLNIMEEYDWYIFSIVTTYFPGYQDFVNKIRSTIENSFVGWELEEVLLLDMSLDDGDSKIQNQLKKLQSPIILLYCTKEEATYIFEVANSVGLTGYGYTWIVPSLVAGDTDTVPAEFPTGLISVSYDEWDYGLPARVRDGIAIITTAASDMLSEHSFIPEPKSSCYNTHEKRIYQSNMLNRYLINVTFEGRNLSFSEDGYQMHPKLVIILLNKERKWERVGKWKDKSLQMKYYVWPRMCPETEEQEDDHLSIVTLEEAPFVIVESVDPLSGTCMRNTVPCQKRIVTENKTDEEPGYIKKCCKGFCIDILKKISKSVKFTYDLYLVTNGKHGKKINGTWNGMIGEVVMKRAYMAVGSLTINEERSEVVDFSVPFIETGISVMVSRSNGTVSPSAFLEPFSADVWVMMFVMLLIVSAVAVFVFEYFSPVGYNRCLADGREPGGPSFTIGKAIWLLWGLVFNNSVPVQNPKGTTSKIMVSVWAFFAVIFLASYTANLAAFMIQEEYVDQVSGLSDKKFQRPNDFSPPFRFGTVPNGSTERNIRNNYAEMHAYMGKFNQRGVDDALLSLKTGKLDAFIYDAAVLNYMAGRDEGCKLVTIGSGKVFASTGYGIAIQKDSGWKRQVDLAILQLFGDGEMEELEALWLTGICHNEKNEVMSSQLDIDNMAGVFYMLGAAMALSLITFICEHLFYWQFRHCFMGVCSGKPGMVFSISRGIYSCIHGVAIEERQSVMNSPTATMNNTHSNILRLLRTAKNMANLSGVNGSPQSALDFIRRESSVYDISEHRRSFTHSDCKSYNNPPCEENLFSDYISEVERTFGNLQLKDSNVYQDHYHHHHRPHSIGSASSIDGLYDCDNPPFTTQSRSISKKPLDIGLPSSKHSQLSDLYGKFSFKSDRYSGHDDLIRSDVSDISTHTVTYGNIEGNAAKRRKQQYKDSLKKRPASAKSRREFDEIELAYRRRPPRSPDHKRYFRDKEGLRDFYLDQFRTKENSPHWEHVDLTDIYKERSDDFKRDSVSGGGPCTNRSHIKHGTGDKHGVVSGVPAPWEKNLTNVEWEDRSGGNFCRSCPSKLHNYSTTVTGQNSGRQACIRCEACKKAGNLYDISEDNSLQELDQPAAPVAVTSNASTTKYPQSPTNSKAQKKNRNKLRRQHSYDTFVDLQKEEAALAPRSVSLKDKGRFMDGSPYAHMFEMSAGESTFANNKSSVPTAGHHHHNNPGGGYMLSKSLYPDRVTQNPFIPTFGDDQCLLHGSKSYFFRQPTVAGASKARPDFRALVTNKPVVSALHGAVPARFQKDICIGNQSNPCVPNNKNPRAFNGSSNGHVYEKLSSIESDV
As to the kind of experiment: NMDAR agonist assay, [3H]MK-801 binding, NMDAR2B. The format is biochemical. The arrangement: key to NMDAR2B B: log EC50: 0=−; ≥1×10^−9 M (e.g., −8)=+; <1×10^−9 M (e.g., −10)=++. Conditions: 50 μM glutamate. Here is the method: as §1, §2, §3, §4

SMILES strings stand for the structures.

Usually EC50 stands for the concentration that produces a half-maximal response. A word on the AUC(0-t): it is exposure summed from dosing to a finite time, without extrapolation to infinity. As a reminder, the clearance is the rate of elimination divided by the concentration. In general, half-life refers to the time needed for the level to fall by half in the phase considered. A word on the bioavailability: it is the share of a dose that reaches the circulation, judged against a reference dose that is usually intravenous. What is called Tmax is the time from dosing to the highest level. As usually defined, the Cmax is the highest concentration seen after dosing.

T2 sequence (Q13224 27-1484, other chains not shown): as above

As for `COc1ccc(CN2CC3(CCN(C)C(=O)C3)C2=O)cc1` (single isomer, unassigned) [CI, 2-(4-methoxybenzyl)-7-methyl-2,7-diazaspiro[3.5]nonane-1,6-dione], in series [1], the EC50 is less than 1 nM and the Emax was less than 100%. Besides, in series [2], the EC50 was less than 1 nM and the Emax is less than 100%. In the series “IV pharmacokinetics”, this molecule showed an AUC(0-t) of 1040 ng·h/mL, a C0 of 2120 ng/mL, a clearance of 32 mL/min/kg and a half-life of 25.2 min. In addition, in the series “IV pharmacokinetics”, the Vd was 0.91 L/kg. Moreover, in series [3], the AUC(0-t) turned out to be 5060 ng·h/mL, the bioavailability was found to be 97%, the time to peak (Tmax) was determined as 15 min and the Cmax is 5050 ng/mL. Besides, in series [3], the “CSF Cmax” value is 1113.94 ng/mL and the “Brain Cmax” value came to 996.66 ng/mL.

As to `CC1CC(=O)N(c2ccc(F)cc2)C12CN(Cc1ccccc1)C2=O` (stereo not shown) [BY, 2-benzyl-5-(4-fluorophenyl)-8-methyl-2,5-diazaspiro[3.4]octane-1,6-dione], the Emax in series [1] and in series [2] was 0% throughout. In series [4], the “NMDAR2A B: log EC50” value was “−”. For the same molecule, the “NMDAR2B B: log EC50” value in series [5] is reported as “−”.

As for `CC1C(N)C(=O)N(C)C12CN(Cc1ccccc1)C2=O` (stereo not shown) [CH, 7-amino-2-benzyl-5,8-dimethyl-2,5-diazaspiro[3.4]octane-1,6-dione], the Emax in series [1] and in series [2] was 0% throughout. Further, the “NMDAR2A B: log EC50” value in series [4] is “−”. Further, the “NMDAR2B B: log EC50” value in series [5] is on record as “−”.

In the case of `C[C@@H](O)[C@@H](C(=O)NCc1ccccc1)N1CC2(CCNC(=O)C2)C1=O` (single isomer, unassigned) [CB], the Emax in series [1] is 0%. Further, in series [4], the “NMDAR2A B: log EC50” value was “−”. For the same molecule, in series [2], the EC50 was less than 1 nM and the Emax is less than 100%. For the same molecule, in “IV pharmacokinetics”, the AUC(0-t) was found to be 1320 ng·h/mL, the C0 was 4320 ng/mL, the clearance was found to be 25.3 mL/min/kg and the half-life is 106 min. Besides, the Vd in the series “IV pharmacokinetics” turned out to be 1.2 L/kg. In addition, in series [3], the AUC(0-t) was determined as 297 ng·h/mL, the bioavailability is 5%, the Tmax stood at 30 min and the highest level (Cmax) was 143 ng/mL. For the same molecule, in series [3], the “CSF Cmax” value is on record as 31.02 ng/mL and the “Brain Cmax” value is on record as 7.38 ng/mL.

Regarding `CCN1CCC2(CC1=O)CN(Cc1ccc(OC)cc1)C2=O` (single isomer, unassigned) [CL, 7-ethyl-2-(4-methoxybenzyl)-2,7-diazaspiro[3.5]nonane-1,6-dione], in series [1], the EC50 was less than 1 nM and the Emax was less than 100%. In series [2], the EC50 was less than 1 nM and the Emax was less than 100%. Besides, in the series “IV pharmacokinetics”, the AUC(0-t) is 772 ng·h/mL, the C0 was determined as 2690 ng/mL, the clearance is 41.7 mL/min/kg and the half-life was 12.6 min. Besides, the Vd in “IV pharmacokinetics” is 0.7 L/kg. Further, in series [3], the AUC(0-t) worked out at 1430 ng·h/mL, the bioavailability was determined as 37%, the Tmax was determined as 15 min and the highest level (Cmax) was 1800 ng/mL. Moreover, in series [3], the “CSF Cmax” value is reported as 866.42 ng/mL and the “Brain Cmax” value is listed as 707.6 ng/mL.

Take `COc1ccc(CN2CC3(CCNC(=S)C3)C2=O)cc1` (single isomer, unassigned) [CM, 2-(4-methoxybenzyl)-6-thioxo-2,7-diazaspiro[3.5]nonan-1-one]: the Emax in series [1] and in series [2] was 0% in each case. Moreover, in series [4], the “NMDAR2A B: log EC50” value is recorded as “−”. For the same molecule, in series [5], the “NMDAR2B B: log EC50” value is reported as “−”.

As to `CC1CC(=O)N(c2ccc(F)cc2)C12CN(CC(N)=O)C2=O` (stereo not shown) [CE, 2-(5-(4-fluorophenyl)-8-methyl-1,6-dioxo-2,5-diazaspiro[3.4]octan-2-yl)acetamide], the Emax in series [1] and in series [2] was 0% in each case. Moreover, the “NMDAR2A B: log EC50” value in series [4] is “−”. Besides, in series [5], the “NMDAR2B B: log EC50” value was “−”.

With `C[C@@H](O)[C@@H](C(=O)N(C)C)N1CC2(CCNC(=O)C2)C1=O` (single isomer, unassigned) [CC], in series [4], the “NMDAR2A A: % maximal [3H]MK-801 binding relative to 1 mM glycine” value is reported as “− (−=0)” and the “NMDAR2A B: log EC50” value is “−”. For the same molecule, in series [2], the EC50 is less than 1 nM and the Emax was less than 100%. Further, in “IV pharmacokinetics”, the AUC(0-t) was found to be 2130 ng·h/mL, the C0 was 7930 ng/mL, the clearance came out at 15.7 mL/min/kg and the half-life is 127 min. The Vd in “IV pharmacokinetics” stood at 0.5 L/kg. Further, in series [3], the AUC(0-t) was determined as 701 ng·h/mL, the bioavailability was 7%, the Tmax is 25.2 min and the concentration peaked (Cmax) at 191 ng/mL. In series [3], the “CSF Cmax” value amounted to 0 ng/mL and the “Brain Cmax” value was found to be 0 ng/mL.

The values are drawn from patent US12084444B2, “Spiro-lactam NMDA modulators and methods of using same” (Tenacia Biotechnology (Hong Kong) Co., Limited, priority 2016, dated 2024).
